Patent US20140135310A1, “SULPHONAMIDE DERIVATIVES OF ALICYCLIC AMINES FOR THE TREATMENT OF CENTRAL NERVOUS SYSTEM DISEASES” (Adamed Sp. z o.o., priority 2011, published 2014)

How the values were obtained:
5-HT2A receptor = target: T1, 5-HT2A receptor (Homo sapiens, UniProt P28223); assay: Radioligand binding assay, serotoninergic 5-HT2A receptors; conditions: binding assay result in %, Table 5a
T1 construct: purchased PerkinElmer
Summary of the method: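 Radioligand competition binding with scintillation counting; nonspecific binding defined by excess unlabelled ligand. Data as percent inhibition of control specific binding. IC50 by Hill-equation fit of competition curves; Ki by Cheng-Prusoff, with radioligand Kd from Scatchard plot.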

[1] = target: T2, serotonin transporter (SERT) (Homo sapiens, UniProt P31645); assay: Radioligand binding assay, serotonin transporter (SERT); conditions: binding assay, test compound 1×10^−6 M
T2 construct: expressed in transfected cells; host or cells: CHO cells
T2 sequence (P31645 whole entry): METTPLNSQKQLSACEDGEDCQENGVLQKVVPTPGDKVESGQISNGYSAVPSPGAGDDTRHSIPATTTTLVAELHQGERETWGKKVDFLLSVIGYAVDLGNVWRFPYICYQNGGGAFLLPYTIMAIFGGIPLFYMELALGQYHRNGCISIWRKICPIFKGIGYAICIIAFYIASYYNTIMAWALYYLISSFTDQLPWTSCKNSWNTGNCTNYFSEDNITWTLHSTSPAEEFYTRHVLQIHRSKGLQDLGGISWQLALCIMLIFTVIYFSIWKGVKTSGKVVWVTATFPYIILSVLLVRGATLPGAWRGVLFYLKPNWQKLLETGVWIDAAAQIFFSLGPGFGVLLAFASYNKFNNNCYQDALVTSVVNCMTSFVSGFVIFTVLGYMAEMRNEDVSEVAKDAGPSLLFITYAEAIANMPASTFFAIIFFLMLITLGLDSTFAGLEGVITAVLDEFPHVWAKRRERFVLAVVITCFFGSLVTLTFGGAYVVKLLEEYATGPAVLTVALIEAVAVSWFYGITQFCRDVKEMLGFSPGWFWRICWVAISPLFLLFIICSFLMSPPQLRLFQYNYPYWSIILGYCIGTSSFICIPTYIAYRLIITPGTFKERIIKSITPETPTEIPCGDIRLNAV
Summary of the method: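 Radioligand competition binding with scintillation detection; specific binding is total minus binding under excess unlabelled ligand. Reported as % of control specific binding or % inhibition; IC50 from Hill-equation non-linear regression of competition curves, and Ki via Cheng-Prusoff using radioligand concentration and Scatchard-derived KD.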

[2] = test system: α1 adrenergic receptors (rat cerebral cortex); assay: Radioligand binding assay, adrenergic α1 receptors; conditions: test compound 1×10^−6 M
Summary of the method: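 Values derive from radioligand displacement, with non-specific binding defined by excess cold ligand and detection by scintillation. Hill-fit IC50s were converted to Ki via Cheng-Prusoff using Scatchard-derived Kd; percent inhibition of control specific binding also reported.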

[3] = target: T3, 5-HT1A receptor (rat hippocampus) (Rattus norvegicus, UniProt P19327); assay: Radioligand binding assay, serotoninergic 5-HT1A receptors; conditions: binding assay result in %, Table 5a;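 note: test compound at 1 µM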
T3 construct: hippocampus; from tissue; host or cells: rat hippocampus
T3 sequence (P19327 1-422): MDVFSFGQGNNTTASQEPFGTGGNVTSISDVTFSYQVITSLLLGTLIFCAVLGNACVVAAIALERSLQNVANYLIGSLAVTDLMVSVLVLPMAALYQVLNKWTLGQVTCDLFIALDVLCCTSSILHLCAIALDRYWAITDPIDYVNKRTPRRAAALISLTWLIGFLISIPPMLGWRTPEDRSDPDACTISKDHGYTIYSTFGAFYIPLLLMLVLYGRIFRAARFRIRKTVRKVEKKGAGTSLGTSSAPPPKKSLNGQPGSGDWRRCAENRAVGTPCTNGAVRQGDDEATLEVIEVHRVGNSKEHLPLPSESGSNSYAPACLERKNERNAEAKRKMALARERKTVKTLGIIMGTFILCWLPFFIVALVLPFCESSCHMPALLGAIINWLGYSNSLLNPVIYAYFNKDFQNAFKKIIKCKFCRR

5-HT6 receptor = target: T4, 5-HT6 receptor (Homo sapiens, UniProt P50406); assay: Radioligand binding assay, serotoninergic 5-HT6 receptors; conditions: binding assay result in %, Table 5a;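 note: test compound at 1 µM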
T4 construct: purchased PerkinElmer
T4 sequence (P50406 whole entry): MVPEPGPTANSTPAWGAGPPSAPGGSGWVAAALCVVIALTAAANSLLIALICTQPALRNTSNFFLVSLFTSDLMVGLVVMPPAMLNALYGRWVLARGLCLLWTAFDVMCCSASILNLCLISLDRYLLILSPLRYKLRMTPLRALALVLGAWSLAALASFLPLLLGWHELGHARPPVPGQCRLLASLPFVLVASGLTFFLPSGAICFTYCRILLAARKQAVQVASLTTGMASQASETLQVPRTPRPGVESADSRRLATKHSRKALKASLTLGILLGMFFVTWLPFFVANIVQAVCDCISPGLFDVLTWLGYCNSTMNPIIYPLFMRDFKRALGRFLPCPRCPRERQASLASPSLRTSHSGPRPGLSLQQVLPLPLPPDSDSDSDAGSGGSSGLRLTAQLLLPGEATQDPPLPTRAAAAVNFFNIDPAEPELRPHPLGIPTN
Summary of the method: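 Values are Ki from Cheng–Prusoff, taking IC50 from Hill nonlinear regression of competition curves and KD from a Scatchard plot. Specific binding was total minus binding with excess unlabelled ligand. Radioligand displacement was detected by scintillation counting, and data were also reported as percent of control specific binding.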

[4] = target: dopaminergic receptors D2 (Homo sapiens, UniProt P14416); assay: Radioligand binding assay, dopaminergic D2 receptors; conditions: binding assay, test compound 1×10^−6 M
Chain of dopaminergic receptors D2 (P14416 whole entry): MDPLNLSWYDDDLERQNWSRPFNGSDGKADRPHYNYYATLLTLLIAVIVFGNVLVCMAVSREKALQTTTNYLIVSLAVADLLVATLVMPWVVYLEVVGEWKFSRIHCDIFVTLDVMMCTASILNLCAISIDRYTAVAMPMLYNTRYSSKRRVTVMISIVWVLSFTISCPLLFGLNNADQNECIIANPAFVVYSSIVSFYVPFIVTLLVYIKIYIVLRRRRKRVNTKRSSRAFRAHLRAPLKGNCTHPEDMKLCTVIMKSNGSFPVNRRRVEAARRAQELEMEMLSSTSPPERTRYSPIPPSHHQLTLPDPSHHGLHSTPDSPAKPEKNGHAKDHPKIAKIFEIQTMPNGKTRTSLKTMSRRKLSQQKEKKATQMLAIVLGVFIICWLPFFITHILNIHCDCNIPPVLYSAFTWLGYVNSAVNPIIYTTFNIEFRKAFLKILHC
Summary of the method: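 Competition binding with scintillation counting of bound radioligand; specific binding taken as total minus non-specific binding measured with excess unlabelled ligand. IC50 obtained by Hill-equation non-linear regression of replicate-mean curves, then converted to Ki via Cheng–Prusoff using radioligand concentration and Scatchard-derived KD.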

5-HT7 receptor = target: T5, 5-HT7 receptor (Homo sapiens, UniProt P34969); assay: Radioligand binding assay, serotoninergic 5-HT7 receptors; conditions: binding assay result in %, Table 5a;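 note: test compound at 1 µM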
T5 construct: purchased PerkinElmer
T5 sequence (P34969 whole entry): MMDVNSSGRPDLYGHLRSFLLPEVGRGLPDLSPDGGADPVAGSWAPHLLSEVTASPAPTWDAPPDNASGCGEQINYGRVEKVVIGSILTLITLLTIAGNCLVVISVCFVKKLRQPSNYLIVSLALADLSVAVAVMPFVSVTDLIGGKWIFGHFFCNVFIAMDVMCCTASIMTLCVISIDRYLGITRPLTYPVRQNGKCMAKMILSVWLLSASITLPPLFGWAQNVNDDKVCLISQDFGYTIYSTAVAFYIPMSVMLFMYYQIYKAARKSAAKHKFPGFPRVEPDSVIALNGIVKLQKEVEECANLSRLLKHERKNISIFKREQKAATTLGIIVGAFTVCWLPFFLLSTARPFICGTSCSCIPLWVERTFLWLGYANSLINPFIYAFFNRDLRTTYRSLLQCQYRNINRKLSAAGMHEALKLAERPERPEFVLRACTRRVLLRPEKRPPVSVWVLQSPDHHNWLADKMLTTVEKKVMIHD
Summary of the method: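 Competition binding at human 5-HT7 receptors with a radioligand, detected by scintillation counting; non-specific binding was defined with excess unlabelled ligand. IC50 came from Hill-equation fits of competition curves, and Ki from Cheng–Prusoff using radioligand concentration and Scatchard-derived KD.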

[5] = target: dopaminergic receptors D3 (Homo sapiens, UniProt P35462); assay: Radioligand binding assay, dopaminergic D3 receptors; conditions: test compound 1×10^−6 M
Chain of dopaminergic receptors D3 (P35462 whole entry): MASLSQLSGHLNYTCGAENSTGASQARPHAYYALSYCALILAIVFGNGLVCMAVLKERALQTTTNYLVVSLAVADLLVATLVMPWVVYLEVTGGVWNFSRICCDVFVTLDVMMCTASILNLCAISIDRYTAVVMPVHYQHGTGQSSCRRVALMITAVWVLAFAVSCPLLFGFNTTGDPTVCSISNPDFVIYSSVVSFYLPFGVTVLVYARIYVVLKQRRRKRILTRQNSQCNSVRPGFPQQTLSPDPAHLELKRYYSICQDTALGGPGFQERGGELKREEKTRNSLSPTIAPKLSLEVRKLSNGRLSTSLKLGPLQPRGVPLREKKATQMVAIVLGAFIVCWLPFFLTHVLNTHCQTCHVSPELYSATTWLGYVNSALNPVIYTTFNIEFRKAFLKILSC
Summary of the method: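 Competition radioligand binding at human D2, D3 and D4.4 receptors, detected by scintillation counting; nonspecific binding defined with excess unlabelled ligand. Results as percent inhibition of control specific binding; IC50 by Hill-equation nonlinear regression; Ki via Cheng-Prusoff, with radioligand KD from Scatchard plot.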

T1 sequence (P28223 whole entry): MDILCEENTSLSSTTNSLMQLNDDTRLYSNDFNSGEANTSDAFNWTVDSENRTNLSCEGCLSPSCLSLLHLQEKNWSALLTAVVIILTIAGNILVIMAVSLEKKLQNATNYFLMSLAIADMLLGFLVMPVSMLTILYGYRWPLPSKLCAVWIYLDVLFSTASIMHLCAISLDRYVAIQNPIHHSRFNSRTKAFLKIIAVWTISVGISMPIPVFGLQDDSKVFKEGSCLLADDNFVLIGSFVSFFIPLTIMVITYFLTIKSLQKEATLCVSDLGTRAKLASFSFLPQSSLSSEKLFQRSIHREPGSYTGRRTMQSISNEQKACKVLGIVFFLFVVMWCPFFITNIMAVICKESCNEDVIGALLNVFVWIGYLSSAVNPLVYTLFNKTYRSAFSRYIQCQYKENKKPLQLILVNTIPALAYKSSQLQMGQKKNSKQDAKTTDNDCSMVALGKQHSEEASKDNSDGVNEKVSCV

Row | SMILES | inhibition at 1 µM (5-HT2A receptor) [%] | inhibition at 1 µM [1] [%] | α1 [%] [2] [%] | inhibition at 1 µM [3] [%] | inhibition at 1 µM (5-HT6 receptor) [%] | inhibition at 1 µM [4] [%] | inhibition at 1 µM (5-HT7 receptor) [%] | inhibition at 1 µM [5] [%]
1 | Cc1c(S(=O)(=O)NCC2CCN(CCOc3cccc4ccccc34)C2)sc2ccc(F)cc12 (centres unmarked) [Compound 271, 5-Fluoro-3-methyl-N-[[1-[2-(1-naphthyloxy)ethyl]pyrrolidin-3-yl]methyl]benzothiophene-2-sulphonamide] | 97 | 40 | −1 | 82 | 76 | 45 | 104 | 93
2 | Cc1c(S(=O)(=O)NCC2CCN(CCOc3cccc4ccccc34)C2)sc2ccc(Cl)cc12 (centres unmarked) [Compound 272, 5-Chloro-3-methyl-N-[[1-[2-(1-naphthyloxy)ethyl]pyrrolidin-3-yl]methyl]benzothiophene-2-sulphonamide] | 82 | 20 | −7 | 63 | 67 | 40 | 88 | 88
3 | O=S(=O)(NCC1CCN(CCOc2cccc3ccccc23)C1)c1cccc2ccccc12 (centres unmarked) [Compound 273, N-[[1-[2-(1-Naphthyloxy)ethyl]pyrrolidin-3-yl]methyl]naphthalene-1-sulphonamide] | 95 | 64 | 25 | 85 | 90 | 58 | 77 | 90
4 | Cn1ccc2cc(S(=O)(=O)NCC3CCN(CCOc4cccc5ccccc45)C3)ccc21 (centres unmarked) [Compound 274, 1-Methyl-N-[[1-[2-(1-naphthyloxy)ethyl]pyrrolidin-3-yl]methyl]indole-5-sulphonamide] | 89 | 109 | 41 | 77 | 97 | 62 | 86 | 81
5 | Cn1ccc2c(S(=O)(=O)NCC3CCN(CCOc4cccc5ccccc45)C3)cccc21 (centres unmarked) [Compound 275, 1-Methyl-N-[[1-[2-(1-naphthyloxy)ethyl]pyrrolidin-3-yl]methyl]indole-4-sulphonamide] | 91 | 93 | 53 | 86 | 84 | 66 | 111 | 94
6 | O=S(=O)(NCC1CCN(CCOc2cccc3ccccc23)C1)c1csc2ccccc12 (centres unmarked) [Compound 276, N-[[1-[2-(1-Naphthyloxy)ethyl]pyrrolidin-3-yl]methyl]benzothiophene-3-sulphonamide] | 92 | 84 | 16 | 81 | 84 | 41 | 82 | 91
7 | O=S(=O)(NCC1CCN(CCOc2cccc3ccccc23)C1)c1ccc(F)c(Cl)c1 (centres unmarked) [Compound 277, 3-Chloro-4-fluoro-N-[[1-[2-(1-naphthyloxy)ethyl]pyrrolidin-3-yl]methyl]benzenesulphonamide] | 85 | 68 | 21 | 85 | 93 | 34 | 108 | 90
8 | O=S(=O)(NCC1CCN(CCOc2cccc3ccccc23)C1)c1ccc(F)c(F)c1 (centres unmarked) [Compound 278, 3,4-Difluoro-N-[[1-[2-(1-naphthyloxy)ethyl]pyrrolidin-3-yl]methyl]benzenesulphonamide] | 91 | 91 | 37 | 84 | 85 | 31 | 102 | 94
9 | O=S(=O)(NCC1CCN(CCOc2cccc3c2OCCO3)C1)c1ccc2scnc2c1 (centres unmarked) [Compound 285, N-[[1-[2-(2,3-Dihydro-1,4-benzodioxin-5-yloxy)ethyl]pyrrolidin-3-yl]methyl]-1,3-benzothiazole-5-sulphonamide] | 77 | 60 | 69 | 62 | 34 | 24 | 86 | 18
10 | O=S(=O)(NCC1CCN(CCOc2cccc3c2OCCO3)C1)c1ccc(Cl)cc1 (centres unmarked) [Compound 289, 4-Chloro-N-[[1-[2-(2,3-dihydro-1,4-benzodioxin-5-yloxy)ethyl]pyrrolidin-3-yl]methyl]benzenesulphonamide] | 61 | 53 | 46 | 99 | -1 | -19 | 81 | 41
11 | Cc1ccc(S(=O)(=O)NCC2CCN(CCOc3cccc4c3OCCO4)C2)cc1 (centres unmarked) [Compound 291, N-[[1-[2-(2,3-Dihydro-1,4-benzodioxin-5-yloxy)ethyl]pyrrolidin-3-yl]methyl]-4-methyl-benzenesulphonamide] | 63 | 66 | 66 | 94 | 19 | 29 | 80 | 33
12 | O=S(=O)(NCC1CCN(CCOc2cccc3c2OCCO3)C1)c1ccc(Cl)c(Cl)c1 (centres unmarked) [Compound 301, 3,4-Dichloro-N-[[1-[2-(2,3-dihydro-1,4-benzodioxin-5-yloxy)ethyl]-pyrrolidin-3-yl]methyl]benzenesulphonamide] | 81 | 38 | 46 | 96 | 61 | -22 | 98 | 34
13 | O=S(=O)(NCC1CCN(CCOc2cccc3c2OCCO3)C1)c1cccs1 (centres unmarked) [Compound 302, N-[[1-[2-(2,3-Dihydro-1,4-benzodioxin-5-yloxy)ethyl]pyrrolidin-3-yl]-methyl]thiophene-2-sulphonamide] | 52 | 37 | 63 | 89 | 35 | 34 | 105 | 37
14 | O=S(=O)(NCC1CCN(CCOc2cccc3c2OCCO3)C1)c1ccc(Cl)s1 (centres unmarked) [Compound 316, 5-Chloro-N-[[1-[2-(2,3-dihydro-1,4-benzodioxin-5-yloxy)ethyl]pyrrolidin-3-yl]-methyl]thiophene-2-sulphonamide] | 82 | 8 | 66 | 74 | 36 | -2 | 87 | 36
15 | O=S(=O)(NC1CCN(CCCc2noc3cc(F)ccc23)CC1)c1ccc2cc(Cl)ccc2c1 [Compound 325, 6-Chloro-N-[1-[3-(6-fluoro-1,2-benzoxazol-3-yl)propyl]-4-piperidyl]naphthalene-2-sulphonamide] | 92 | 21 | 76 | 80 | 72 | 91 | 89 | 59
16 | Cc1c(S(=O)(=O)NC2CCN(CCCc3noc4cc(F)ccc34)CC2)sc2ccc(Cl)cc12 [Compound 326, 5-Chloro-N-[1-[3-(6-fluoro-1,2-benzoxazol-3-yl)propyl]-4-piperidyl]-3-methyl-benzothiophene-2-sulphonamide] | 97 | 10 | 70 | -1 | 83 | 86 | 91 | 61
